The values below come from patent US20110195900A1, “PEPTIDIC PTH RECEPTOR AGONISTS” (FERRING B.V., priority 2008, published 2011).

Where two headings read alike, the source gives them in different places. Non-standard residues stand in square brackets, D forms with d. Residues, ends and D or L forms follow the SMILES beside them. 1Nal = N[C@@H](Cc1cccc2ccccc12)C(=O)O; 2Nal = N[C@@H](Cc1ccc2ccccc2c1)C(=O)O; β3hI = CC[C@H](C)[C@H](N)CC(=O)O; β3hR = N=C(N)NCCC[C@H](N)CC(=O)O; Nle = CCCC[C@H](N)C(=O)O; Aib = CC(C)(N)C(=O)O; βAla = NCCC(=O)O

One experiment deals with T1, human PTH-2 receptor (Homo sapiens, UniProt P49190).
T1 construct: expressed in transfected cells
In words: Luciferase-based transcriptional reporter gene assay for selectivity. It is filed as cell-based. An outline of the steps: (§1)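 Selectivity came from luciferase transcriptional reporter assays expressing human PTH-2 receptor. PTH-1 agonism used transiently transfected HEK-293 cells carrying SV40-promoter receptor and cAMP-responsive-element luciferase; 4-5 h compound exposure, lysis, luminescence, non-linear-regression EC50/efficacy; ≥3 independent runs, PTH (1-34) control each.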

The target of a further experiment is T2, human PTH-1 receptor (Homo sapiens, UniProt Q03431).
T2 construct: expressed in transfected cells; host or cells: HEK-293
T2 sequence (Q03431 27-593): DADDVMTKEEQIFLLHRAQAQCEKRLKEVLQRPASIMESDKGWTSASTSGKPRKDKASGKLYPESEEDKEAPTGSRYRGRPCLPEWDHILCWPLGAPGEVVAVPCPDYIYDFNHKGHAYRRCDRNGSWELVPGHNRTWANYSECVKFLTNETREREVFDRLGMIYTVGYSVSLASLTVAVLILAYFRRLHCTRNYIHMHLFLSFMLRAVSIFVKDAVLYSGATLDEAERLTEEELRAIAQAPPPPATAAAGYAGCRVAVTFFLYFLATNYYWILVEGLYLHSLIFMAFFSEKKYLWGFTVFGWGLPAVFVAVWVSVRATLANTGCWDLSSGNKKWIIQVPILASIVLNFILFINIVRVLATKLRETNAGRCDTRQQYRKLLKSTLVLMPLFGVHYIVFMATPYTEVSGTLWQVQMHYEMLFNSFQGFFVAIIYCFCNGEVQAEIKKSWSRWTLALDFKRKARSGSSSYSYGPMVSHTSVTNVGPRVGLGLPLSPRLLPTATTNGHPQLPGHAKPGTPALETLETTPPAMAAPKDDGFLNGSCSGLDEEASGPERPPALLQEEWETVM
The experiment in a line: Reporter gene assay (CRE-luciferase) for agonist activity in transiently transfected HEK-293 cells. Type of experiment: cell-based. The note with it: for hPTHR-2/hPTHR-1: selectivity for hPTH-1 receptor over hPTH-2 receptor. An outline of the steps: as §1
(Reporter assays use an easily measured gene product as a stand-in for the process of interest.)

T1 sequence (P49190 25-550): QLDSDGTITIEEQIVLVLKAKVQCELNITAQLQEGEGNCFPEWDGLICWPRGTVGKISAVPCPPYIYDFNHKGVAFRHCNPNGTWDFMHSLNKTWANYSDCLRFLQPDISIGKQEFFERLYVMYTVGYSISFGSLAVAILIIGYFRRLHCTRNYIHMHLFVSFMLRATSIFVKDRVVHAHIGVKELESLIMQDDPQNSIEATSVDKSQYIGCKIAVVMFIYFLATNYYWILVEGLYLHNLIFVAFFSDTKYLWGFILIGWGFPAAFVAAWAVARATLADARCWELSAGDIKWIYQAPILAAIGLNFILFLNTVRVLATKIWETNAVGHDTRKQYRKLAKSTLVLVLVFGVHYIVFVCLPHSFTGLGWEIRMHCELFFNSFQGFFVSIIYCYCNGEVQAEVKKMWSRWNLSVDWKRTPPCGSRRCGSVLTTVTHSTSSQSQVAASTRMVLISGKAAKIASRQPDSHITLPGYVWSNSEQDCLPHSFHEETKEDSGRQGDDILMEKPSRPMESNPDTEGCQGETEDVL

In general, EC50 refers to the concentration at which the effect is half-maximal. Regarding `CCCC[C@H](NC(=O)[C@H](CC(C)C)NC(=O)[C@H](CCC(N)=O)NC(=O)[C@@H](NC(=O)[C@H](CCC(=O)O)NC(=O)[C@H](CO)NC(=O)[C@@H](NC(=O)[C@@H](N)CO)C(C)C)[C@@H](C)CC)C(=O)N[C@@H](Cc1c[nH]cn1)C(=O)N[C@@H](CC(N)=O)C(=O)N[C@@H](CC(C)C)C(=O)NCC(=O)N[C@@H](CCCCN)C(=O)N[C@@H](Cc1c[nH]cn1)C(=O)N[C@@H](CC(C)C)C(=O)N[C@@H](CCCCN)C(=O)N[C@@H](CO)C(=O)N[C@H](CC(=O)N[C@@H](CCC(=O)O)C(=O)N[C@@H](CCCNC(=N)N)C(=O)N[C@H](C(=O)N[C@@H](CCC(=O)O)C(=O)N[C@@H](Cc1cccc2ccccc12)C(=O)N[C@@H](CC(C)C)C(=O)N[C@@H](CCCNC(=N)N)C(=O)N[C@@H](CCCCN)C(=O)N[C@@H](CC(C)C)C(=O)N[C@@H](CC(C)C)C(=O)N[C@@H](CCC(N)=O)C(=O)N[C@@H](CCCNC(=N)N)C(=O)N[C@H](C(=O)N[C@@H](Cc1c[nH]cn1)C(=O)N[C@@H](CC(N)=O)C(=O)N[C@@H](Cc1ccccc1)C(N)=O)C(C)C)C(C)C)[C@@H](C)CC` [SEQ ID NO: 37, [Nle^8, Lys^16, β-hIle^18,1-Nal^23, Leu^27, Arg^30] hPTH (1-34)-NH2] (H-SVSEIQL[Nle]HNLGKHLKS[β3hI]ERVE[1Nal]LRKLLQRVHNF-NH2), the EC50 at human PTH-2 receptor is 14 nM; on human PTH-1 receptor it was 0.14 nM. Further, on human PTH-1 receptor (Table 3, ratio of EC50 values), the hPTHR-2/hPTHR-1 is on record as 97.
`CCCC[C@H](NC(=O)[C@H](CC(C)C)NC(=O)[C@H](CCC(N)=O)NC(=O)[C@@H](NC(=O)[C@H](CCC(=O)O)NC(=O)[C@H](CO)NC(=O)[C@@H](NC(=O)C(C)(C)N)C(C)C)[C@@H](C)CC)C(=O)N[C@@H](Cc1c[nH]cn1)C(=O)N[C@@H](CC(N)=O)C(=O)N[C@@H](CC(C)C)C(=O)NCC(=O)N[C@@H](CCCCN)C(=O)N[C@@H](Cc1c[nH]cn1)C(=O)N[C@@H](CC(C)C)C(=O)N[C@@H](CC(N)=O)C(=O)N[C@@H](CO)C(=O)N[C@@H](CCCNC(=N)N)CC(=O)N[C@@H](CCC(=O)O)C(=O)N[C@@H](CCCNC(=N)N)C(=O)N[C@H](C(=O)N[C@@H](CCC(=O)O)C(=O)N[C@@H](Cc1cccc2ccccc12)C(=O)N[C@@H](CC(C)C)C(=O)N[C@@H](CCCNC(=N)N)C(=O)N[C@@H](CCCCN)C(=O)N[C@@H](CC(C)C)C(=O)N[C@@H](CC(C)C)C(=O)N[C@@H](CCC(N)=O)C(=O)N[C@@H](CC(=O)O)C(=O)N[C@H](C(=O)N[C@@H](Cc1c[nH]cn1)C(=O)N[C@@H](CC(N)=O)C(=O)N[C@@H](Cc1ccccc1)C(N)=O)C(C)C)C(C)C` [SEQ ID NO: 43, [Aib^1, Nle^8, β-hArg^18,1-Nal^23, Leu^27] hPTH (1-34)-NH2] (H-[Aib]VSEIQL[Nle]HNLGKHLNS[β3hR]ERVE[1Nal]LRKLLQDVHNF-NH2): the EC50 at human PTH-2 receptor was determined as 16 nM; at human PTH-1 receptor, 0.05 nM. Besides, at human PTH-1 receptor (Table 3, ratio of EC50 values), the hPTHR-2/hPTHR-1 was 312. Also, the “Selectivity hPTHR-2/hPTHR-1” value on human PTH-1 receptor (Table 4 comparison data, ratio of EC50 values) was 312.
As for `CCCC[C@H](NC(=O)[C@H](CC(C)C)NC(=O)[C@H](CCC(N)=O)NC(=O)[C@@H](NC(=O)[C@H](CCC(=O)O)NC(=O)[C@H](CO)NC(=O)[C@@H](NC(=O)[C@@H](N)CO)C(C)C)[C@@H](C)CC)C(=O)N[C@@H](Cc1c[nH]cn1)C(=O)N[C@@H](CC(N)=O)C(=O)N[C@@H](CC(C)C)C(=O)NCC(=O)N[C@@H](CCCCN)C(=O)N[C@@H](Cc1c[nH]cn1)C(=O)N[C@@H](CC(C)C)C(=O)N[C@@H](CCCCN)C(=O)N[C@@H](CO)C(=O)N[C@H](CC(=O)N[C@@H](CCC(=O)O)C(=O)N[C@@H](CCCNC(=N)N)C(=O)N[C@H](C(=O)N[C@@H](CCC(=O)O)C(=O)N[C@@H](Cc1cccc2ccccc12)C(=O)N[C@@H](CC(C)C)C(=O)N[C@@H](CCCNC(=N)N)C(=O)N[C@@H](CCCCN)C(=O)N[C@@H](CC(C)C)C(=O)N[C@@H](CC(C)C)C(=O)N[C@@H](CCC(N)=O)C(=O)N[C@@H](CCCNC(=N)N)C(=O)N[C@H](C(=O)N[C@@H](Cc1c[nH]cn1)C(=O)N[C@@H](CCC(=O)O)C(=O)N[C@@H](Cc1ccccc1)C(N)=O)C(C)C)C(C)C)[C@@H](C)CC` [SEQ ID NO: 41, [Nle^8, Lys^16, β-hIle^18,1-Nal^23, Leu^27, Arg^30, Glu^33] hPTH (1-34)-NH2] (H-SVSEIQL[Nle]HNLGKHLKS[β3hI]ERVE[1Nal]LRKLLQRVHEF-NH2), the values for the EC50 on human PTH-2 receptor and at human PTH-1 receptor were 14 nM and 0.09 nM, respectively. In addition, the hPTHR-2/hPTHR-1 at human PTH-1 receptor (Table 3, ratio of EC50 values) is 157.
`CCCC[C@H](NC(=O)CCNC(=O)[C@H](CC(N)=O)NC(=O)[C@H](CC(C)C)NC(=O)[C@H](Cc1c[nH]cn1)NC(=O)[C@H](CCCCN)NC(=O)CNC(=O)[C@H](CC(C)C)NC(=O)[C@H](CC(N)=O)NC(=O)[C@H](Cc1c[nH]cn1)NC(=O)[C@H](CCCC)NC(=O)[C@H](CC(C)C)NC(=O)[C@H](CCC(N)=O)NC(=O)[C@@H](NC(=O)[C@H](CCC(=O)O)NC(=O)[C@H](CO)NC(=O)[C@@H](NC(=O)C(C)(C)N)C(C)C)[C@@H](C)CC)C(=O)N[C@@H](CCC(=O)O)C(=O)N[C@@H](CCCNC(=N)N)C(=O)N[C@H](C(=O)N[C@@H](CCC(=O)O)C(=O)N[C@@H](Cc1ccc2ccccc2c1)C(=O)N[C@@H](CC(C)C)C(=O)N[C@@H](CCCNC(=N)N)C(=O)N[C@@H](CCCCN)C(=O)N[C@@H](CCCCN)C(=O)N[C@@H](CC(C)C)C(=O)N[C@@H](CCC(N)=O)C(=O)N[C@@H](CC(=O)O)C(=O)N[C@H](C(=O)N[C@@H](Cc1c[nH]cn1)C(=O)N[C@@H](CC(N)=O)C(=O)N[C@@H](Cc1ccccc1)C(N)=O)C(C)C)C(C)C` [SEQ ID NO: 13, [Aib^1, Nle^8,18, β-Ala^17,2-Nal^23] hPTH (1-34)-NH2] (H-[Aib]VSEIQL[Nle]HNLGKHLN[βAla][Nle]ERVE[2Nal]LRKKLQDVHNF-NH2; N-terminus assumed): the EC50 at human PTH-2 receptor (Table 3, luciferase reporter gene assay, read-out: hPTHR-2 EC50) turned out to be 46 nM; at human PTH-1 receptor (Table 3, HEK-293 cells, CRE-luciferase, 4-5 hours exposure, read-out: hPTHR-1 EC50), 0.22 nM. Moreover, on human PTH-1 receptor (Table 3, ratio of EC50 values), the hPTHR-2/hPTHR-1 is recorded as 213.
In the case of `CCCC[C@H](NC(=O)[C@H](CC(C)C)NC(=O)[C@H](CCC(N)=O)NC(=O)[C@@H](NC(=O)[C@H](CCC(=O)O)NC(=O)[C@H](CO)NC(=O)[C@@H](NC(=O)[C@@H](N)CO)C(C)C)[C@@H](C)CC)C(=O)N[C@@H](Cc1c[nH]cn1)C(=O)N[C@@H](CCC(=O)O)C(=O)N[C@@H](CC(C)C)C(=O)NCC(=O)N[C@@H](CCCCN)C(=O)N[C@@H](Cc1c[nH]cn1)C(=O)N[C@@H](CC(C)C)C(=O)N[C@@H](CC(N)=O)C(=O)N[C@@H](CO)C(=O)N[C@H](CC(=O)N[C@@H](CCC(=O)O)C(=O)N[C@@H](CCCNC(=N)N)C(=O)N[C@H](C(=O)N[C@@H](CCC(=O)O)C(=O)N[C@@H](Cc1cccc2ccccc12)C(=O)N[C@@H](CC(C)C)C(=O)N[C@@H](CCCNC(=N)N)C(=O)N[C@@H](CCCCN)C(=O)N[C@@H](CC(C)C)C(=O)N[C@@H](CC(C)C)C(=O)N[C@@H](CCC(N)=O)C(=O)N[C@@H](CC(=O)O)C(=O)N[C@H](C(=O)N[C@@H](Cc1c[nH]cn1)C(=O)N[C@@H](CC(N)=O)C(=O)N[C@@H](Cc1ccccc1)C(N)=O)C(C)C)C(C)C)[C@@H](C)CC` [SEQ ID NO: 24, [Nle^8, Glu^10, β-hIle^18,1-Nal^23, Leu^27] hPTH (1-34)-NH2] (H-SVSEIQL[Nle]HELGKHLNS[β3hI]ERVE[1Nal]LRKLLQDVHNF-NH2), the half-maximal effective concentration (EC50) turned out to be 3 nM at human PTH-2 receptor and 0.13 nM on human PTH-1 receptor. In addition, the hPTHR-2/hPTHR-1 at human PTH-1 receptor (Table 3, ratio of EC50 values) came to 24.
With `CCCC[C@H](NC(=O)[C@H](CC(C)C)NC(=O)[C@H](CCC(N)=O)NC(=O)[C@@H](NC(=O)[C@H](CCC(=O)O)NC(=O)[C@H](CO)NC(=O)[C@@H](NC(=O)C(C)(C)N)C(C)C)[C@@H](C)CC)C(=O)N[C@@H](Cc1c[nH]cn1)C(=O)N[C@@H](CC(N)=O)C(=O)N[C@@H](CC(C)C)C(=O)NCC(=O)N[C@@H](CCCCN)C(=O)N[C@@H](Cc1c[nH]cn1)C(=O)N[C@@H](CC(C)C)C(=O)N[C@@H](CCCCN)C(=O)N[C@@H](CO)C(=O)N[C@H](CC(=O)N[C@@H](CCC(=O)O)C(=O)N[C@@H](CCCNC(=N)N)C(=O)N[C@H](C(=O)N[C@@H](CCC(=O)O)C(=O)N[C@@H](Cc1cccc2ccccc12)C(=O)N[C@@H](CC(C)C)C(=O)N[C@@H](CCCNC(=N)N)C(=O)N[C@@H](CCCCN)C(=O)N[C@@H](CC(C)C)C(=O)N[C@@H](CC(C)C)C(=O)N[C@@H](CCC(N)=O)C(=O)N[C@@H](CCCNC(=N)N)C(=O)N[C@H](C(=O)N[C@@H](Cc1c[nH]cn1)C(=O)N[C@@H](CCC(=O)O)C(=O)N[C@@H](Cc1ccccc1)C(N)=O)C(C)C)C(C)C)[C@@H](C)CC` [SEQ ID NO: 39, [Aib^1, Nle^8, Lys^16, β-hIle^18,1-Nal^23, Leu^27, Arg^30, Glu^33] hPTH (1-34)-NH2] (H-[Aib]VSEIQL[Nle]HNLGKHLKS[β3hI]ERVE[1Nal]LRKLLQRVHEF-NH2; N-terminus assumed), the EC50 is 6 nM on human PTH-2 receptor and 0.09 nM at human PTH-1 receptor. Also, on human PTH-1 receptor (Table 3, ratio of EC50 values), the hPTHR-2/hPTHR-1 is recorded as 61.
